Experiments:
[1] = system: Spontaneous Hypertensive Rat (SHR); experiment: Arterial pressure by telemetry in conscious unrestrained Spontaneous Hypertensive Rat (SHR); format: in vivo; conditions: 150 mg/kg bid for 5 days, over 24 h on the 5th day
Method: The effects of Compound (I) on arterial pressure was measured in conscious unrestrained well-known rat model of hypertension, the Spontaneous Hypertensive Rat (SHR), using telemetry. SHR aged of 21-22 weeks present a higher arterial pressure compared to healthy Wistar rats: systolic arterial pressure was 200 mmHg vs 120 mmHg in Wistar rats.
Four male SHR were submitted to surgery to implant a blood pressure catheter into the abdominal aorta. The telemetry transmitter was attached to the peritoneum. Ten days after recovery, the same animal received vehicle or Compound (I) 150 mg/kg bid administered for 5 days, 5 weeks apart. Systolic, diastolic and mean arterial pressures were recorded during 24 h, the 5th day of treatment.

ob/ob mice [2] = experiment: Dyslipidemia in male obese diabetic dyslipidemic ob/ob mice, 5 weeks of treatment; format: in vivo, mouse
Method: (§1) Effects of Compound (I) in male obese diabetic dyslipidemic ob/ob mice after 5 weeks of treatment.
(§2) Compound (I) was administered at 25, 50 and 100 mg/kg twice a day by oral route in carboxy methylcellulose 0.5%/Tween 80 (98/2) (n=10). A group of ob/ob mice was treated with carboxy methylcellulose 0.5%/Tween 80 (98/2) as a control group.

ob/ob mice [3] = experiment: Body weight in male obese diabetic dyslipidemic ob/ob mice, 5 weeks of treatment; format: in vivo, mouse
Method: as §1, §2

[4] = system: diet-induced obesity non-alcoholic steatohepatitis (DIO-NASH) mouse model; experiment: Diet-induced obesity NASH (DIO-NASH) mouse model: effects on liver and adipose tissue metabolism; format: in vivo; conditions: 8 weeks; for change of liver weight compared to ctrl group / decrease in hepatic stellate cell activation (aSMA positive staining) / decrease in plasma free fatty acid level / increase of PGCl-α protein expression in AT / reduction of fat pad mass / reduction of liver TG content / hormone-sensitive lipase P-HSLser565 / down-regulation of fibrotic gene expression (type I collagen): p<0.01; for hormone-sensitive lipase P-HSLser563 / hormone-sensitive lipase P-HSLser565: adipose tissue; for down-regulation of fibrotic gene expression (type I collagen): liver
Method: (§3) • The effects of the monohydrate potassium salt of formula (I) (or “Compound (I)”) on liver and adipose tissue (AT) metabolism in a diet-induced obesity non-alcoholic steatohepatitis (DIO-NASH) mouse model are reported here.
(§4) After 41 weeks, only DIO-NASH mice with biopsy-confirmed steatosis (score ≥2) and fibrosis (stage ≥1) were included and received orally (n=12) vehicle (ctrl), compound (I) 35 or 75 mg/kg twice daily for 8 weeks.

AMPK = AMPK activity (P-AMPK/AMPK) in liver and visceral adipose tissue of DIO-NASH mice; format: in vivo, mouse; conditions: 8 weeks; for increase of AMPK activity in the liver (P-AMPK/AMPK): p<0.05
Method: as §3, §4

[5] = 50 mg/kg twice a day oral, p<0.001
[6] = 100 mg/kg twice a day oral, p<0.001

O=c1[nH]c2sc(Cl)c(-c3ccc4c(c3O)CCCC4)c2c([O-])c1-c1ccccc1.[K+] [Compound (I), monohydrate potassium salt of 2-chloro-4-hydroxy-3-(5-hydroxytetralin-6-yl)-5-phenyl-7H-thieno[2,3-b]pyridin-6-one]
reduction of diastolic arterial pressure (DAP) compared to vehicle-treated SHR [1]: −17 mmHg | reduction of mean arterial pressure (MAP) compared to vehicle-treated SHR [1]: −18 mmHg | reduction of systolic arterial pressure (SAP) compared to vehicle-treated SHR [1]: −19 mmHg | decrease of plasma FFA (ob/ob mice [2]; 25 mg/kg twice a day oral, NS): −14% | decrease of plasma triglyceride (ob/ob mice [2]; 25 mg/kg twice a day oral, NS): −19% | increase in HDL cholesterol (ob/ob mice [2]; 25 mg/kg twice a day oral, NS): +12% | decrease of plasma triglyceride (ob/ob mice [2]; [5]): −40% | increase in HDL cholesterol (ob/ob mice [2]; [5]): +31% | decrease of plasma FFA (ob/ob mice [2]; 50 mg/kg twice a day oral, p<0.05): −35% | decrease of plasma FFA (ob/ob mice [2]; 100 mg/kg twice a day oral, NS): −21% | decrease of plasma triglyceride (ob/ob mice [2]; [6]): −43% | increase in HDL cholesterol (ob/ob mice [2]; [6]): +32% | decrease of body weight compared to day 1 (ob/ob mice [3]; 25 mg/kg twice a day oral): −17% | decrease of body weight compared to day 1 (ob/ob mice [3]; 50 mg/kg twice a day oral): −24% | reduction of NAFLD Activity Score (NAS) ([4]; 35 mg/kg orally twice daily, from 6.6, p<0.01): −32% | change of liver weight compared to ctrl group ([4]; 35 mg/kg orally twice daily): −23% | decrease in hepatic stellate cell activation (aSMA positive staining) ([4]; 35 mg/kg orally twice daily): −34% | decrease in plasma free fatty acid level ([4]; 35 mg/kg orally twice daily): −37% | increase of PGCl-α protein expression in AT ([4]; 35 mg/kg orally twice daily): +321% | reduction of fat pad mass ([4]; 35 mg/kg orally twice daily): −25% | reduction of liver TG content ([4]; 35 mg/kg orally twice daily): −36% | NAFLD Activity Score (NAS) after treatment ([4]; 35 mg/kg orally twice daily, from 6.6): 4.5 | reduction of NAFLD Activity Score (NAS) ([4]; 75 mg/kg orally twice daily, from 6.7, p<0.01): −44% | change of liver weight compared to ctrl group ([4]; 75 mg/kg orally twice daily): −33% | decrease in hepatic stellate cell activation (aSMA positive staining) ([4]; 75 mg/kg orally twice daily): −39% | decrease in plasma free fatty acid level ([4]; 75 mg/kg orally twice daily): −38% | increase of PGCl-α protein expression in AT ([4]; 75 mg/kg orally twice daily): +409% | reduction of fat pad mass ([4]; 75 mg/kg orally twice daily): −37% | reduction of liver TG content ([4]; 75 mg/kg orally twice daily): −42% | decrease of MCP-1 gene expression in AT ([4]; 75 mg/kg orally twice daily, p<0.05): −55% | NAFLD Activity Score (NAS) after treatment ([4]; 75 mg/kg orally twice daily, from 6.7): 3.8 | hormone-sensitive lipase P-HSLser563 ([4]; 35 mg/kg orally twice daily): −67% | hormone-sensitive lipase P-HSLser565 ([4]; 35 mg/kg orally twice daily): +416% | hormone-sensitive lipase P-HSLser563 ([4]; 75 mg/kg orally twice daily): −52% | hormone-sensitive lipase P-HSLser565 ([4]; 75 mg/kg orally twice daily): +425% | down-regulation of fibrotic gene expression (type I collagen) ([4]; 35 mg/kg orally twice daily): −65% | down-regulation of fibrotic gene expression (type I collagen) ([4]; 75 mg/kg orally twice daily): −68% | AMPK activation in visceral AT (P-AMPK/AMPK) (AMPK; 35 mg/kg orally twice daily, ns): +130% | increase of AMPK activity in the liver (P-AMPK/AMPK) (AMPK; 35 mg/kg orally twice daily): +128% | AMPK activation in visceral AT (P-AMPK/AMPK) (AMPK; 75 mg/kg orally twice daily, p<0.01): +152% | increase of AMPK activity in the liver (P-AMPK/AMPK) (AMPK; 75 mg/kg orally twice daily): +143%
